Each structure is given as a SMILES string. Where a SMILES comes first, the peptide text is derived from it.

This data set can be described thus: Water solubility of peptides when preparing stock solutions. The format is physicochemical. As to conditions: stock solution in sterile distilled water or 100% DMSO; read-out: solubility of peptide (water soluble or water insoluble, dissolved in DMSO). As for the experimental part: For challenge, peptides were administered as follows: • Individual peptides (soluble). Individual water soluble peptides were dissolved as 10, 5 or 2.5 mg/ml stock solutions in sterile distilled water. Before use, each peptide was diluted in water to 2 mg/ml and 10 μl of this 2 mg/ml mix was added to 990 μl of media. Then 100 μl of this peptide/media mix was added to 100 μl of media containing 350,000 PBMC in an ELISPOT anti-IL-4 coated cell culture plate well for a final peptide concentration of 10 μg/ml. Identically diluted media only was added to the cells and used for the no peptide media control wells (media only). • Individual peptides (DMSO). Individual water insoluble peptides were dissolved in 100% DMSO to a stock concentration of 50 mg/ml. Before use each peptide was diluted in water to 2 mg/ml and then 10 μl of the 2 mg/ml mix was added to 990 μl of cell-culture media. Then 100 μl of this peptide/media mix was added to 100 μl of media containing 350,000 PBMC in an ELISPOT anti-IL-4 coated cell culture plate well for a final peptide concentration of 10 μg/ml. Identically diluted media only was added to the cells and used for the no peptide media control wells (media only). • A combination preparation containing Alt a 1 soluble peptides (33.2, 34.3, 35.4, 35.5, 37.3.1, 37.4.1, L6-5.01, L10-1.01, L10-2.01, L10-3), called Alt a 1 Sol. Each peptide was diluted from water stock to 2 mg/ml in sterile distilled water. Then 10 μl of each peptide required for the combined preparation was mixed and brought up to 1 ml in media. Then 100 μl of this peptide/media mix was added to 100 μl of media containing 350,000 PBMC in an ELISPOT anti-IL-4 coated cell culture plate well for a final concentration of each peptide of 10 μg/ml. Identically diluted media only was used for the no peptide control wells (media only). • A combination preparation containing Alt a 1 DMSO peptides (32.2.1, 38.2.1, 35.2, 35.3, L6-2, L6-3, L6-4, 38.3, 37.2), called Alt a 1 DMSO. Each peptide was diluted from DMSO stock to 2 mg/ml in sterile distilled water. Then 10 μl of each peptide required for the combined preparation was mixed and brought up to 1 ml in media. Then 100 μl of this peptide/media mix is added to 100 μl of media containing 350,000 PBMC in an ELISPOT anti-IL-4 coated cell culture plate well for a final concentration of each peptide of 10 μg/ml. Identically diluted media only was used for the no peptide control wells (media only). • A combination preparation containing non-Alt a 1 soluble peptides (40.2, 41.2, 43.2, 44.2, 46.2, 47.2.1, 56.2, 57.2.1, 60.2, 62.2.1, 67.2, 71.3), called Alt a Other Sol. Each peptide was diluted from water stock to 2 mg/ml in sterile distilled water. Then 10 μl of each peptide required for the combined preparation was mixed and brought up to 1 ml in media, Then 100 μl of this peptide/media mix was added to 100 μl of media containing 350,000 PBMC in an ELISPOT anti-IL-4 coated cell culture plate well for a final concentration of each peptide at 10 μg/ml. Identically diluted media only was used for the no peptide control wells (media only). • A combination preparation containing non-Alt a 1 DMSO peptides (39.2, 42.2, 45.2, 48.2.1, 50.2, 51.2.1, 61.2.1, 66.3.1, 68.2.1, 70.2, 71.2, 72.2), called Alt a Other DMSO. Each peptide was diluted from DMSO stock to 2 mg/ml in sterile distilled water. Then 10 ul of each peptide required for the combined preparation was mixed and brought up to 1 ml in media, Then 100 μl of this peptide/media mix was added to 100 μl of media containing 350,000 PBMC in an ELISPOT anti-IL-4 coated cell culture plate well for a final concentration of each peptide at 10 μg/ml. Identically diluted media only was used for the no peptide control wells (media only).
For orientation: solubility means the dissolved amount per volume that the medium holds. Consider `CC(C)C[C@H](NC(=O)[C@H](CC(N)=O)NC(=O)[C@H](C)NC(=O)[C@H](CC(C)C)NC(=O)[C@H](CC(C)C)NC(=O)[C@H](CO)NC(=O)[C@H](Cc1ccccc1)NC(=O)[C@H](C)NC(=O)[C@@H](NC(=O)[C@H](CCCCN)NC(=O)[C@H](Cc1ccc(O)cc1)NC(=O)CNC(=O)[C@H](CC(C)C)NC(=O)[C@@H]1CCCN1C(=O)[C@@H](N)C(C)C)[C@@H](C)O)C(=O)O` [Peptide 66.3.1, VPLGYKTAFSLLANL] (H-VPLGYKTAFSLLANL-OH), for which the solubility is under 2500 µg/mL.
With `CC(C)C[C@H](NC(=O)[C@H](C)NC(=O)[C@H](CCCCN)NC(=O)[C@H](CC(C)C)NC(=O)[C@H](CCCCN)NC(=O)[C@H](CCC(N)=O)NC(=O)[C@H](Cc1ccc(O)cc1)NC(=O)[C@@H](NC(=O)[C@H](CCC(=O)O)NC(=O)[C@H](C)N)C(C)C)C(=O)N[C@@H](C)C(=O)N[C@@H](CCCCN)C(=O)N[C@@H](CCCCN)C(=O)N[C@H](C(=O)N[C@@H](Cc1ccc(O)cc1)C(=O)O)[C@@H](C)O` [Peptide 60.2, AEVYQKLKALAKKTY] (H-AEVYQKLKALAKKTY-OH) the figure was over 2500 µg/mL; with `CC[C@H](C)[C@H](NC(=O)[C@@H](N)CC(=O)O)C(=O)N[C@H](C(=O)N[C@@H](Cc1ccc(O)cc1)C(=O)N[C@H](C(=O)N[C@@H](C)C(=O)N[C@H](C(=O)N[C@@H](C)C(=O)N[C@H](C(=O)N[C@@H](CC(C)C)C(=O)N1CCC[C@H]1C(=O)N[C@@H](CC(N)=O)C(=O)N[C@@H](Cc1ccc(O)cc1)C(=O)N[C@H](C(=O)N[C@@H](CCCNC(=N)N)C(=O)O)C(C)C)[C@@H](C)O)[C@@H](C)O)C(C)C)[C@@H](C)O` [Peptide 37.3.1, DITYVATATLPNYVR] (H-DITYVATATLPNYVR-OH), over 2500 µg/mL.
As to `CC[C@H](C)[C@H](NC(=O)[C@H](Cc1c[nH]cn1)NC(=O)CNC(=O)[C@H](CO)NC(=O)[C@H](CC(C)C)NC(=O)[C@H](CO)NC(=O)[C@H](CO)NC(=O)[C@@H](NC(=O)[C@@H](NC(=O)[C@@H](NC(=O)[C@H](CC(C)C)NC(=O)[C@H](CO)NC(=O)CNC(=O)[C@@H](N)[C@@H](C)O)C(C)C)[C@@H](C)CC)[C@@H](C)O)C(=O)N[C@@H](C)C(=O)O` [Peptide 47.2.1, TGSLVITSSLSGHIA] (H-TGSLVITSSLSGHIA-OH), the solubility is over 2500 µg/mL.
Turning to `CC[C@H](C)[C@H](NC(=O)[C@H](CCCCN)NC(=O)[C@H](Cc1c[nH]c2ccccc12)NC(=O)[C@@H](NC(=O)[C@H](Cc1ccc(O)cc1)NC(=O)[C@@H](N)CC(=O)O)C(C)C)C(=O)N[C@@H](CO)C(=O)N[C@@H](CCC(=O)O)C(=O)N[C@@H](Cc1ccccc1)C(=O)N[C@@H](Cc1ccc(O)cc1)C(=O)NCC(=O)N[C@@H](CCCNC(=N)N)C(=O)N[C@@H](CCCCN)C(=O)N1CCC[C@H]1C(=O)N[C@@H](CCC(=O)O)C(=O)O` [Peptide 34.3, DYVWKISEFYGRKPE] (H-DYVWKISEFYGRKPE-OH), the solubility was over 2500 µg/mL.
With `CC[C@H](C)[C@H](NC(=O)[C@H](CO)NC(=O)[C@@H](NC(=O)[C@@H](NC(=O)[C@H](CCCCN)NC(=O)[C@@H](NC(=O)[C@@H](N)CCC(N)=O)[C@@H](C)O)[C@@H](C)O)C(C)C)C(=O)N[C@@H](CCCNC(=N)N)C(=O)N[C@@H](CC(C)C)C(=O)NCC(=O)N[C@@H](CC(=O)O)C(=O)N[C@H](C(=O)N[C@@H](CC(C)C)C(=O)N[C@@H](Cc1ccccc1)C(=O)NCC(=O)O)C(C)C` [Peptide 71.3, QTKTVSIRLGDVLFG] (H-QTKTVSIRLGDVLFG-OH) the figure was over 2500 µg/mL.
As for `CC[C@H](C)[C@H](NC(=O)[C@H](CC(=O)O)NC(=O)[C@H](CCC(N)=O)NC(=O)[C@@H]1CCCN1C(=O)[C@@H](NC(=O)[C@H](Cc1ccccc1)NC(=O)[C@H](CC(=O)O)NC(=O)[C@H](CO)NC(=O)[C@@H](N)CC(C)C)C(C)C)C(=O)N[C@@H](CCC(N)=O)C(=O)N[C@@H](CCCCN)C(=O)N[C@@H](CC(C)C)C(=O)N[C@@H](Cc1c[nH]c2ccccc12)C(=O)N[C@@H](Cc1c[nH]cn1)C(=O)N[C@@H](CO)C(=O)O` [Peptide 67.2, LSDFVPQDIQKLWHS] (H-LSDFVPQDIQKLWHS-OH), the figure is over 2500 µg/mL; as for `CC(C)C[C@H](NC(=O)[C@@H](NC(=O)CNC(=O)[C@@H](NC(=O)[C@H](CO)NC(=O)[C@@H](NC(=O)[C@H](Cc1ccccc1)NC(=O)[C@@H](NC(=O)CNC(=O)[C@H](C)N)C(C)C)C(C)C)[C@@H](C)O)[C@@H](C)O)C(=O)NCC(=O)NCC(=O)NCC(=O)N[C@@H](CCC(N)=O)C(=O)N[C@@H](CCC(=O)O)C(=O)O` [Peptide 45.2, AGVFVSTGTLGGGQE] (H-AGVFVSTGTLGGGQE-OH), under 2500 µg/mL.
On to `CC[C@H](C)[C@H](NC(=O)[C@@H](NC(=O)[C@@H](NC(=O)[C@H](CC(C)C)NC(=O)[C@H](CCCCN)NC(=O)[C@H](CO)NC(=O)[C@@H](N)CC(C)C)C(C)C)[C@@H](C)O)C(=O)N[C@@H](C)C(=O)N[C@@H](CCCCN)C(=O)N[C@H](C(=O)N[C@@H](CC(=O)O)C(=O)N[C@@H](C)C(=O)N[C@H](C(=O)N[C@@H](CC(C)C)C(=O)N[C@@H](CC(N)=O)C(=O)O)[C@@H](C)O)C(C)C` [Peptide 56.2, LSKLVTIAKVDATLN] (H-LSKLVTIAKVDATLN-OH), for which the solubility was over 2500 µg/mL.
As for `CC[C@H](C)[C@H](N)C(=O)N[C@@H](C)C(=O)N[C@@H](CO)C(=O)N[C@@H](CC(C)C)C(=O)N[C@@H](Cc1ccccc1)C(=O)N[C@@H](C)C(=O)N[C@@H](C)C(=O)N[C@@H](C)C(=O)NCC(=O)N[C@@H](CC(C)C)C(=O)N[C@@H](C)C(=O)N[C@@H](C)C(=O)N[C@@H](C)C(=O)N[C@@H](C)C(=O)N1CCC[C@H]1C(=O)O` [Peptide L6-2, IASLFAAAGLAAAAP], the solubility is under 2500 µg/mL.
As for `CC[C@H](C)[C@H](NC(=O)[C@@H](NC(=O)[C@@H](NC(=O)[C@H](CCCCN)NC(=O)CNC(=O)[C@@H](N)CCCCN)C(C)C)C(C)C)C(=O)N[C@H](C(=O)N[C@H](C(=O)NCC(=O)N[C@@H](C)C(=O)N[C@@H](CO)C(=O)NCC(=O)N1CCC[C@H]1C(=O)N[C@H](C(=O)NCC(=O)O)[C@@H](C)O)[C@@H](C)O)C(C)C` [Peptide 46.2, KGKVVIVTGASGPTG] (H-KGKVVIVTGASGPTG-OH), the figure is over 2500 µg/mL.
Take `CC[C@H](C)[C@H](NC(=O)[C@H](CC(N)=O)NC(=O)[C@H](Cc1ccccc1)NC(=O)CN)C(=O)N[C@@H](CCCCN)C(=O)N[C@@H](C)C(=O)N[C@H](C(=O)N[C@@H](CC(N)=O)C(=O)NCC(=O)NCC(=O)N[C@H](C(=O)N[C@@H](CC(C)C)C(=O)N[C@@H](CC(=O)O)C(=O)N[C@@H](Cc1ccccc1)C(=O)N[C@H](C(=O)O)[C@@H](C)O)[C@@H](C)O)[C@@H](C)O` [Peptide 35.5, GFNIKATNGGTLDFT] (H-GFNIKATNGGTLDFT-OH): the solubility was over 2500 µg/mL.
With `CC[C@H](C)[C@H](NC(=O)[C@H](CCC(=O)O)NC(=O)[C@H](CC(=O)O)NC(=O)[C@@H]1CCCN1)C(=O)N[C@@H](CCC(N)=O)C(=O)NCC(=O)N[C@@H](Cc1ccccc1)C(=O)N1CCC[C@H]1C(=O)N[C@H](C(=O)N[C@H](C(=O)N[C@@H](CCCCN)C(=O)N[C@@H](CC(C)C)C(=O)N[C@@H](Cc1ccccc1)C(=O)N1CCC[C@H]1C(=O)N[C@@H](C)C(=O)O)[C@@H](C)CC)[C@@H](C)O` [Peptide 43.2, PDEIQGFPTIKLFPA] (H-PDEIQGFPTIKLFPA-OH) the figure was over 2500 µg/mL.
